Drawing on US7105516B2, “Compounds for the treatment of premature ejaculation” (Bristol-Myers Squibb Company, priority 2002, dated 2006), this text covers Ki for seven compounds.

Like-named read-outs stand apart in the source and are kept apart here. A value given as a limit tells only on which side of the number the result lay.

The target in assay [1] is T1, human norepinephrine transporters (Homo sapiens, UniProt P23975).
T1 construct: the text also calls them 'HEK-hNET cells'); membrane homogenates
Description: Norepinephrine Transporter Binding Assay ([3H]-nisoxetine displacement, hNET cell membranes). The conditions noted are these: 2.7 nM [3H]-nisoxetine, 1 hr at 4° C., read-out: NE reuptake binding Ki. Here is the method:
MDCK cells that stably express human norepinephrine transporters (HEK-hNET cells) were supplied by Receptor Biology, Inc. Pellets were resuspended by homogenization in buffer consisting of 50 mM Tris (pH 7.4 at 25° C.), 120 mM NaCl and 5 mM KCl. Membrane homogenates (200 μl/well, 8 ug protein) were incubated with 2.7 nM [^3H]-nisoxetine (specific activity=80 Ci/mMol) and increasing concentrations of test compounds for 1 hr at 4° C. in a total volume of 250 μl. The assay buffer consisted of 50 mM Tris (pH 7.4 at 25° C.), 120 mM NaCl and 5 mM KCl (pH 7.4 with conc. HCl). Plates were incubated for 1 hr at 4° C., then filtered through 0.5% PEI treated Whatman GF/B filters using a Brandel cell harvester. Filters were washed three times with 3 mL of ice-cold tris wash buffer. Non-specific binding was defined with 10 μM desipramine. Amount of radioligand bound in the presence and absence of competitor was analyzed by plotting (−)log drug concentration versus the amount of radioligand specifically bound. The midpoint of the displacement curve (IC50, nM), signifies the potency. Ki values were calculated using the method of Cheng and Prusoff (1973).

The target of assay [2] is T2, human serotonin transporters (Homo sapiens, UniProt P31645).
T2 construct: expressed in transfected cells; membrane homogenates
Description: Serotonin Transporter Binding Assay ([3H]-citalopram displacement, HEK-hSERT cell membranes). The settings on record: 1 nM [3H]-citalopram, 1 hr at 25° C. On the procedure:
HEK-293 cells that stably express human serotonin transporters (HEK-hSERT cells) were grown at 37° C. in 5% CO2 as a monolayer in medium consisting of EMEM supplemented with 10% fetal bovine serum and G418 sulfate (500 μg/mL). […] Cells were transferred from plates to polypropylene tubes (16×100 mm), centrifuged at 1,200×g for 5 min and were frozen at −80° C. until assay. Following centrifugation, pellets were resuspended by homogenization in buffer consisting of 50 mM Tris (pH 7.7 at 25° C.), 120 mM NaCl and 5 mM KCl and then centrifuged at 32,000×g for 10 min. Following centrifugation, supernatants were discarded and pellets were resuspended in buffer consisting of 50 mM Tris (pH 7.4 at 25° C.), 150 mM NaCl and 5 mM KCl. Membrane homogenates (200 μl/plate) were incubated with 1 nM [^3H]-citalopram (specific activity=85 Ci/mMol) and increasing concentrations of test compounds for 1 hr at 25° C. in a total volume of 250 μl. The assay buffer consisted of 50 mM Tris (pH 7.4 at 25° C.), 120 mM NaCl and 5 mM KCl (pH 7.4 with conc. HCl). Plates were incubated for 1 hr at 25° C., then filtered through 0.5% PEI treated Whatman GF/B filters using a Brandel cell harvester. Filters were washed three times with 3 mL of ice-cold tris wash buffer. Non-specific binding was defined with 10 μM fluoxetine. Amount of radioligand bound in the presence and absence of competitor was analyzed by plotting (−)log drug concentration versus the amount of radioligand specifically bound. The midpoint of the displacement curve (IC50, nM), signifies the potency.

The mark [3] stands for this setting: read-out: 5-HT reuptake binding Ki.

T2 sequence (P31645 whole entry): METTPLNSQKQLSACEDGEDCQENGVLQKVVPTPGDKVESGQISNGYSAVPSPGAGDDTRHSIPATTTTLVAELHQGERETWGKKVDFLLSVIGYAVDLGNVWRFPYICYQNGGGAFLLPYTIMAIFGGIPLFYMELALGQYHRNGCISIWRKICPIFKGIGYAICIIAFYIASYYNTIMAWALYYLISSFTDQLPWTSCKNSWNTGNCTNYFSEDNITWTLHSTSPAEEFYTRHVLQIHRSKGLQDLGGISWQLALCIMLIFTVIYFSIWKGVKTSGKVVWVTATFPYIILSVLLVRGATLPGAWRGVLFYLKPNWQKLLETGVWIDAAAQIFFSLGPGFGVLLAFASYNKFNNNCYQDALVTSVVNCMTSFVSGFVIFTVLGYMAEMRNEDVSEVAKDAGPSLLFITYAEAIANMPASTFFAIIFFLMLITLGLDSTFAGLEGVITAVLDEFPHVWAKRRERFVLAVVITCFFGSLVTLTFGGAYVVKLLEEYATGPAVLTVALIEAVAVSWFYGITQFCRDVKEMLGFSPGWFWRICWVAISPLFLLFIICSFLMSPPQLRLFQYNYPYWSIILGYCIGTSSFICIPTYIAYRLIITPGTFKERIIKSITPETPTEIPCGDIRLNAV
T1 sequence (P23975 whole entry): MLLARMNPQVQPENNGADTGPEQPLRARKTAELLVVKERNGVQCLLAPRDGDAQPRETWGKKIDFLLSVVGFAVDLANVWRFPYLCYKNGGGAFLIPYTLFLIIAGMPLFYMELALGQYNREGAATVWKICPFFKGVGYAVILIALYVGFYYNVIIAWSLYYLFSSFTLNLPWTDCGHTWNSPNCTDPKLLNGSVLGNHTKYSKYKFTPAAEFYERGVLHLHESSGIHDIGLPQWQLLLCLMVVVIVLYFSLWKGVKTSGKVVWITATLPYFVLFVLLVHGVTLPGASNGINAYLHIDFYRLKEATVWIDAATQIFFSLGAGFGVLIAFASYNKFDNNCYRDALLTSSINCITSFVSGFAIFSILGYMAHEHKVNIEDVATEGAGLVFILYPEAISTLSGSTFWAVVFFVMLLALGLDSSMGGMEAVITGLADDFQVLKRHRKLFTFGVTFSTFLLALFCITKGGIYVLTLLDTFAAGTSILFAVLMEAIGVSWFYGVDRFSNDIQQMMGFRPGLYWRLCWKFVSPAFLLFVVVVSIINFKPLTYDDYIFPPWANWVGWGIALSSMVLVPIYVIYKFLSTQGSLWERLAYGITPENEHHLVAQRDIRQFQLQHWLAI

Regarding `CCN(CC)C[C@H]1CCC[C@@H]1c1ccc2[nH]cc(C#N)c2c1` (relative stereo) [Example 39, Trans-5-(diethylaminomethyl-cyclopentyl)-1H-indole-3-carbonitrile], the Ki is above 1000 nM in assay [1] and 100 to 500 nM in assay [2] (setting [3]).

With `CN(Cc1ccccc1)C[C@H]1CCC[C@@H]1c1ccc2[nH]cc(C#N)c2c1` (relative stereo) [Example 40, Trans-5-{2-[(benzyl-methyl-amino)-methyl]-cyclopentyl}-1H-indole-3-carbonitrile], the results for the inhibition constant (Ki) in assay [1] and in assay [2] (setting [3]) were above 1000 nM and 10 to 100 nM, respectively.

For the compound `CN(C)C[C@H]1CCC[C@@H]1c1ccc2c(c1)c(C#N)cn2C` (relative stereo) [Example 41, Trans-5-(2-dimethylaminomethyl-cyclopentyl)-1-methyl-1H-indole-3-carbonitrile], the Ki in assay [1] was above 1000 nM; in assay [2] (setting [3]), 100 to 500 nM.

With `CNC[C@@H]1CCC[C@@H]1c1ccc2[nH]cc(C#N)c2c1` (relative stereo) [Example 42, Cis-5-(methylaminomethyl-cyclopentyl)-1H-indole-3-carbonitrile], the inhibition constant (Ki) lay in the range of 100 to 500 nM in assay [1] and 10 to 100 nM in assay [2] (setting [3]).

With `CC([C@H]1CCCC1c1c[nH]c2ccc(C#N)cc12)N(C)C` (single isomer, unassigned; diastereomer a) [Example 46, (+/−) trans-3-[2-(1-dimethylaminoethyl)cyclopentyl]-1H-indole-5-carbonitrile,diastereomer A], the inhibitory constant (Ki) is above 1000 nM in assay [1] and below 1 nM in assay [2] (5-HT reuptake binding Ki).

As to `CN(C)C[C@@H]1CCC[C@H]1c1c[nH]c2ccc(C#N)cc12` (single isomer, unassigned; enantiomer a) [Example 44], the Ki in assay [1] was above 1000 nM; in assay [2] (5-HT reuptake binding Ki), 10 to 100 nM.

Turning to `CN(C)C[C@H]1CCC[C@@H]1c1c[nH]c2ccc(C#N)cc12` (single isomer, unassigned; enantiomerb) [Example 45], the inhibition constant (Ki) was above 1000 nM in assay [1] and below 1 nM in assay [2] (5-HT reuptake binding Ki).

What is called Ki is the equilibrium dissociation constant of an inhibitor or competing ligand from its target.
